Laboratory results from patent US9714212B2, “Chemical compounds derived from normemantine and use of same in the medical field” (M2I DEVELOPMENT, priority 2013, dated 2017).

Assays:
NMDA receptors [1] = system: T1, NMDA receptors; assay: Displacement of tritiated MK-801 from cerebral cortex membrane homogenate (first experiment); assay type: binding; details: for IC50: R0 MK-801, 2 hours at 37° C.
T1 construct: Emission ratio 1st test (%); other: R0 MK-801; [R1]; 1 · 10^−5 Mol/l; first test; Emission ratio 1st test (%); 1 · 10^−6 Mol/l; 1 · 10^−7 Mol/l; 1 · 10^−8 Mol/l; Emission ratio 1
Text: (§1) In this example, the affinity of fluoroethyl normemantine for NMDA receptors will be compared with that of glutamate (Glu) and of the product Dizocilpine (called “MK-801”), which are known NMDA receptor […] (see Neuroscience Letters, Vol. 80 (1), p. 111-114). MK-801 binds to two different sites in rat brain (Brain Res. 378, p. 133).
To that end, a material containing NMDA receptors will first be immersed in a solution containing labeled MK-801 (first experiment) or glutamate (second experiment) and then these materials are incubated in solutions containing fluoroethyl normemantine at various concentrations. Next, the radioactive emissions before and after this second incubation are compared. Lower emissions mean that fluoroethyl normemantine has a stronger affinity for NMDA receptors than that of the references and that NMDA receptors are inhibited thereby.
By means of these measurements, a correlation can be established between the concentration of the compound IE and NMDA receptor inhibition. The magnitude of the half-maximal inhibitory concentration (IC50) is deduced therefrom.
As the product to be tested (product R1), either memantine or compound I is used. The experimental protocol is as follows: a homogenate of cerebral cortex membrane (140 μg of proteins) is prepared and then incubated for 2 hours at 37° C. with 10 nM […] (tritiated MK-801) in the absence or presence of compound R1 (in buffer containing 5 mM HEPES/Tris (pH=7.4) and 0.1 mM ethyleneglycol tetraacetic acid). The comparison is made with an incubation of […] MK-801. The samples are quickly filtered under vacuum through glass-fiber filters and rinsed with 50 mM iced Tris-HCl. The filters are dried and their radioactivity is counted on a scintillation counter. The concentration of compound R1 varies, and by comparing for each concentration the difference in emission between the control filter (MK-801 alone) and the MK-801/R1 mixture filter, the ratio of inhibition of compound R1 for each concentration is obtained.

NMDA receptors [2] = system: T2, NMDA receptors; assay: Displacement of tritiated glutamate from cerebral cortex membrane homogenate (second experiment); assay type: binding; details: R0 Glu
T2 construct: Emission ratio 1st test (%); other: R0 Glu; [R1]; 1 · 10^−6 M; first test; Emission ratio 1st test (%); 1 · 10^−7 M; 1 · 10^−8 M; 1 · 10^−9 M
Text: as §1
To that end, a material containing NMDA receptors will first be immersed in a solution containing labeled MK-801 (first experiment) or glutamate (second experiment) and then these materials are incubated in solutions containing fluoroethyl normemantine at various concentrations. Next, the radioactive emissions before and after this second incubation are compared. Lower emissions mean that fluoroethyl normemantine has a stronger affinity for NMDA receptors than that of the references and that NMDA receptors are inhibited thereby. […]
The experimental protocol is much the same as in the first experiment: a homogenate of cerebral cortex membrane (140 μg of protein) is prepared and then incubated for 1 hour at 4° C. with 5 nM tritiated glutamate (tritiated Glu) in the absence or presence of fluoroethyl normemantine (in buffer containing 5 mM Tris-HCl (pH=7.7) and 10 mM ethyleneglycol tetraacetic acid). […] The filters are dried and their radioactivity is counted on a scintillation counter. […]

[3] = Mouse study of distribution in the body; assay type: in vivo, mice C57/Black 6J
Procedure: (§2) All the mice are the species C57/Black 6J provided by Charles River Laboratories (France) and about 8 weeks old.
(§3) The volume administered to each mouse is defined as […] and is administered once intravenously by means of a suitable syringe and needle.
At the prescribed time the mice are sacrificed, ground material from the organs is extracted and the concentration therein is analyzed by HPLC-MS assays.

[4] = Toxicity after a single intravenous administration in mice; assay type: in vivo, mice C57/Black 6J; details: male mice, single 0.125 μg/kg intravenously
Procedure: as §2, §3

Solubility in water = assay type: physicochemical
[5] = Lipophilicity log(P), n-octanol / pH 7.4 buffer, HPLC; assay type: physicochemical; details: 50/50 by volume pH 7.4 buffer solution and octanol
Text: Lipophilicity: determined by log(P)=log([I]n-octanol/[I]water), by placing the compound (I) in a 50/50 mixture by volume of pH 7.4 buffer solution and octanol, separating the phases, then assaying by means of HPLC the level of the compound (I) present in each of said phases.

[6] = mice, 0.125 μg/kg intravenously, sacrifice at 3 minutes

Q: Which “affinity, order of magnitude” value (NMDA receptors [1]; R0 MK-801) does the source give for `NC12CC3CC(C1)CC(CCF)(C3)C2` [Fluoroethyl normemantine] here?
A: Its value is ~10^−6 M.

Q: What about the “displacement of MK-801” value (NMDA receptors [1]; R0 MK-801) of the same molecule?
A: The value was “displaces MK-801”.

Q: What about the IC50 (NMDA receptors [1]) of the same molecule?
A: Its IC50 is 6.1 µM.

Q: What about the “ability to displace Glu” value (NMDA receptors [2]) of the same molecule?
A: The value was “unable to displace Glu”.

Q: What about the IC50 (NMDA receptors [2]; 1 hour at 4° C.) of the same molecule?
A: The IC50 was “cannot be measured”.

Q: What about the “affinity for the brain (share in brain), comparison with prior art” value ([3]; comparison sentence of b89, time not restated) of the same molecule?
A: Its value is 12%.

Q: Which “affinity, order of magnitude” value (NMDA receptors [1]; R0 MK-801) does the source give for `CC12CC3CC(C)(C1)CC(N)(C3)C2` [Memantine] here?
A: The value was ~10^−6 M.

Q: And the IC50 (NMDA receptors [1])?
A: Its IC50 is 1.1 µM.

Q: And the “Mean (emission ratio)” value (NMDA receptors [1]; R0 MK-801, [R1] 1 · 10^−5 Mol/l)?
A: The value was 10.8%.

Q: What about the “Mean (emission ratio)” value (NMDA receptors [1]; R0 MK-801, [R1] 1 · 10^−6 Mol/l) of the same molecule?
A: The value was 52.3%.

Q: What about the “Mean (emission ratio)” value (NMDA receptors [1]; R0 MK-801, [R1] 1 · 10^−7 Mol/l) of the same molecule?
A: Its value is 88.8%.

Q: What about the “Mean (emission ratio)” value (NMDA receptors [1]; R0 MK-801, [R1] 1 · 10^−8 Mol/l) of the same molecule?
A: The value was 101.4%.

Q: And the “Mean (emission ratio)” value (NMDA receptors [1]; R0 MK-801, [R1] 1 · 10^−9 Mol/l)?
A: The value was 96.9%.

Q: And the “Mean (emission ratio)” value (NMDA receptors [1]; R0 MK-801, [R1] 3 · 10^−6 Mol/l)?
A: The value was 29.0%.

Q: What about the “Mean (emission ratio)” value (NMDA receptors [1]; R0 MK-801, [R1] 3 · 10^−7 Mol/l) of the same molecule?
A: Its value is 73.1%.

Q: And the “Mean (emission ratio)” value (NMDA receptors [1]; R0 MK-801, [R1] 3 · 10^−8 Mol/l)?
A: The value was 97.5%.

Q: And the “Mean (emission ratio)” value (NMDA receptors [1]; R0 MK-801, [R1] 3 · 10^−9 Mol/l)?
A: Its value is 103.3%.

Q: Which “toxicity (conclusion)” value [4] does the source give for `NC12CC3CC(C1)CC(CCF)(C3)C2` [^18F-fluoroethyl normemantine] here?
A: Its value is “not toxic at the doses tested”.

Q: What about the solubility (Solubility in water) of the same molecule?
A: The solubility was over 100 mM.

Q: What about the “Brain: % of the injected dose” value [3, 6] of the same molecule?
A: Its value is 12 % of the injected dose.

Q: And the “Kidneys: share of injected dose” value [3, 6]?
A: The value was 18%.

Q: And the “Liver: share of injected dose” value [3, 6]?
A: The value was 20%.

Q: With `NC12CC3CC(C1)CC(CCF)(C3)C2` [compound (I)] as the molecule, how does the “log(P)” value [5] read?
A: The value was 3.1 (±0.5).
